“And” between values parts separate entries of the source, which are not always exact repeats. Equal entries are not always repeated.
Conditions: for surface tension liquid-gas: Drop volume; for viscosity / speed of sound / mass density / vapor or sublimation pressure: Liquid; for viscosity: Capillary tube (Ostwald / Ubbelohde) method; for speed of sound: Frequency=3 MHz, Single path-length method; for mass density: Vibrating tube method; for vapor or sublimation pressure: Ebulliometric method (Recirculating still)

CCc1ccco1 [2-ethylfuran]
Conditions | surface tension liquid-gas [mN/m] | vapor or sublimation pressure [kPa]
278.15 K | 27.22 | –
280.65 K | 26.91 | –
283.15 K | 26.59 | –
285.65 K | 26.31 | –
288.15 K | 26.01 | –
289.96 K | – | 4.96
290.65 K | 25.62 | –
292.18 K | – | 5.57
293.15 K | 25.32 | –
293.77 K | – | 6.05
295.65 K | 25.09 | –
295.94 K | – | 6.77
297.39 K | – | 7.29
298.15 K | 24.78 | –
299.52 K | – | 8.105
300.65 K | 24.43 | –
301.86 K | – | 9.08
303.15 K | 24.12 | –
304.58 K | – | 10.35
305.65 K | 23.81 | –
306.32 K | – | 11.27
308.15 K | 23.51 | –
308.82 K | – | 12.64
310.65 K | 23.22 | –
312.73 K | – | 15.06
313.15 K | 22.91 | –

Conditions | mass density | speed of sound [m/s] | viscosity [mPa·s]
278.15 K, 100 kPa | 920.97 kg/m3 | 1281 | 0.6327
280.65 K, 100 kPa | 918.26 kg/m3 | 1270.8 | 0.6126
283.15 K, 100 kPa | 915.55 kg/m3 and 915.5 kg/m3 | 1259.4 | 0.5934
283.15 K, 2000 kPa | 917.27 kg/m3 | – | –
283.15 K, 5000 kPa | 919.69 kg/m3 | – | –
283.15 K, 7000 kPa | 921.41 kg/m3 | – | –
283.15 K, 10000 kPa | 923.87 kg/m3 | – | –
283.15 K, 15000 kPa | 927.84 kg/m3 | – | –
283.15 K, 20000 kPa | 931.59 kg/m3 | – | –
283.15 K, 25000 kPa | 935.19 kg/m3 | – | –
283.15 K, 30000 kPa | 938.66 kg/m3 | – | –
283.15 K, 35000 kPa | 942.04 kg/m3 | – | –
283.15 K, 40000 kPa | 945.33 kg/m3 | – | –
283.15 K, 45000 kPa | 948.5 kg/m3 | – | –
283.15 K, 50000 kPa | 951.53 kg/m3 | – | –
283.15 K, 55000 kPa | 954.61 kg/m3 | – | –
283.15 K, 60000 kPa | 957.6 kg/m3 | – | –
283.15 K, 65000 kPa | 960.38 kg/m3 | – | –
285.65 K, 100 kPa | 912.83 kg/m3 | 1248.7 | 0.5733
288.15 K, 100 kPa | 910.1 kg/m3 and 910.08 kg/m3 | 1238.5 | 0.556
288.15 K, 2000 kPa | 911.89 kg/m3 | – | –
288.15 K, 5000 kPa | 914.37 kg/m3 | – | –
288.15 K, 7000 kPa | 916.19 kg/m3 | – | –
288.15 K, 10000 kPa | 918.68 kg/m3 | – | –
288.15 K, 15000 kPa | 922.7 kg/m3 | – | –
288.15 K, 20000 kPa | 926.63 kg/m3 | – | –
288.15 K, 25000 kPa | 930.32 kg/m3 | – | –
288.15 K, 30000 kPa | 933.89 kg/m3 | – | –
288.15 K, 35000 kPa | 937.37 kg/m3 | – | –
288.15 K, 40000 kPa | 940.66 kg/m3 | – | –
288.15 K, 45000 kPa | 943.92 kg/m3 | – | –
288.15 K, 50000 kPa | 947.13 kg/m3 | – | –
288.15 K, 55000 kPa | 950.18 kg/m3 | – | –
288.15 K, 60000 kPa | 953.28 kg/m3 | – | –
288.15 K, 65000 kPa | 956.1 kg/m3 | – | –
290.65 K, 100 kPa | 907.37 kg/m3 | 1227.6 | 0.5394
293.15 K, 100 kPa | 904.64 kg/m3 and 904.65 kg/m3 | 1216.7 | 0.5214
293.15 K, 2000 kPa | 906.44 kg/m3 | – | –
293.15 K, 5000 kPa | 909.05 kg/m3 | – | –
293.15 K, 7000 kPa | 910.93 kg/m3 | – | –
293.15 K, 10000 kPa | 913.5 kg/m3 | – | –
293.15 K, 15000 kPa | 917.66 kg/m3 | – | –
293.15 K, 20000 kPa | 921.69 kg/m3 | – | –
293.15 K, 25000 kPa | 925.54 kg/m3 | – | –
293.15 K, 30000 kPa | 929.07 kg/m3 | – | –
293.15 K, 35000 kPa | 932.7 kg/m3 | – | –
293.15 K, 40000 kPa | 936.06 kg/m3 | – | –
293.15 K, 45000 kPa | 939.48 kg/m3 | – | –
293.15 K, 50000 kPa | 942.66 kg/m3 | – | –
293.15 K, 55000 kPa | 945.78 kg/m3 | – | –
293.15 K, 60000 kPa | 948.91 kg/m3 | – | –
293.15 K, 65000 kPa | 951.86 kg/m3 | – | –
295.65 K, 100 kPa | 901.9 kg/m3 | 1205.2 | 0.5061
298.15 K, 100 kPa | 899.15 kg/m3 and 899.11 kg/m3 | 1194.9 | 0.4917
298.15 K, 2000 kPa | 901.01 kg/m3 | – | –
298.15 K, 5000 kPa | 903.73 kg/m3 | – | –
298.15 K, 7000 kPa | 905.65 kg/m3 | – | –
298.15 K, 10000 kPa | 908.34 kg/m3 | – | –
298.15 K, 15000 kPa | 912.57 kg/m3 | – | –
298.15 K, 20000 kPa | 916.67 kg/m3 | – | –
298.15 K, 25000 kPa | 920.61 kg/m3 | – | –
298.15 K, 30000 kPa | 924.3 kg/m3 | – | –
298.15 K, 35000 kPa | 928.03 kg/m3 | – | –
298.15 K, 40000 kPa | 931.52 kg/m3 | – | –
298.15 K, 45000 kPa | 934.92 kg/m3 | – | –
298.15 K, 50000 kPa | 938.29 kg/m3 | – | –
298.15 K, 55000 kPa | 941.41 kg/m3 | – | –
298.15 K, 60000 kPa | 944.69 kg/m3 | – | –
298.15 K, 65000 kPa | 947.7 kg/m3 | – | –
300.65 K, 100 kPa | 896.4 kg/m3 | 1184.1 | 0.4774
303.15 K, 100 kPa | 893.64 kg/m3 and 893.58 kg/m3 | 1172.5 | 0.4637
303.15 K, 2000 kPa | 895.61 kg/m3 | – | –
303.15 K, 5000 kPa | 898.41 kg/m3 | – | –
303.15 K, 7000 kPa | 900.35 kg/m3 | – | –
303.15 K, 10000 kPa | 903.06 kg/m3 | – | –
303.15 K, 15000 kPa | 907.56 kg/m3 | – | –
303.15 K, 20000 kPa | 911.72 kg/m3 | – | –
303.15 K, 25000 kPa | 915.8 kg/m3 | – | –
303.15 K, 30000 kPa | 919.58 kg/m3 | – | –
303.15 K, 35000 kPa | 923.37 kg/m3 | – | –
303.15 K, 40000 kPa | 927 kg/m3 | – | –
303.15 K, 45000 kPa | 930.47 kg/m3 | – | –
303.15 K, 50000 kPa | 933.84 kg/m3 | – | –
303.15 K, 55000 kPa | 937.1 kg/m3 | – | –
303.15 K, 60000 kPa | 940.35 kg/m3 | – | –
303.15 K, 65000 kPa | 943.48 kg/m3 | – | –
305.65 K, 100 kPa | 890.87 kg/m3 | 1161.8 | 0.45
308.15 K, 100 kPa | 888.1 kg/m3 and 888.06 kg/m3 | 1151.5 | 0.4372
308.15 K, 2000 kPa | 890.15 kg/m3 | – | –
308.15 K, 5000 kPa | 893.04 kg/m3 | – | –
308.15 K, 7000 kPa | 895.02 kg/m3 | – | –
308.15 K, 10000 kPa | 897.93 kg/m3 | – | –
308.15 K, 15000 kPa | 902.45 kg/m3 | – | –
308.15 K, 20000 kPa | 906.8 kg/m3 | – | –
308.15 K, 25000 kPa | 910.98 kg/m3 | – | –
308.15 K, 30000 kPa | 914.84 kg/m3 | – | –
308.15 K, 35000 kPa | 918.68 kg/m3 | – | –
308.15 K, 40000 kPa | 922.47 kg/m3 | – | –
308.15 K, 45000 kPa | 925.95 kg/m3 | – | –
308.15 K, 50000 kPa | 929.45 kg/m3 | – | –
308.15 K, 55000 kPa | 932.76 kg/m3 | – | –
308.15 K, 60000 kPa | 936.18 kg/m3 | – | –
308.15 K, 65000 kPa | 939.24 kg/m3 | – | –
310.65 K, 100 kPa | 885.31 kg/m3 | 1140.6 | 0.4258
313.15 K, 100 kPa | – | – | 0.4149
